In PubChem BioAssay (NCI) one finds TGI data, which are given here for 21 compounds.

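Protocol summary: plate cells (96-well), add compound at 5 concentrations, incubate 48 h, interpolate endpoints linearly. The concentration for full growth arrest is given as TGI.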

What all share (assay): growth of human tumour cells (NCI), 48 h
Test [1] relates to DMS 273 small cell lung.
Test [2] concerns EKVX NSCLC.
Test [3] deals with SNB-78 CNS.
Test [4] concerns HOP-92 NSCLC.
Test [5] deals with IGROV1 ovarian.
In test [6] the test system is M19-MEL melanoma.
Test [7] deals with HCT-15 colon.
Test [8] deals with HT29 colon.
Test [9] concerns UACC-257 melanoma.
The test system of test [10] is ACHN renal.
The subject of test [11] is HS 578T breast.
Test [12] concerns T-47D breast.

Consider `Cc1cc(C)c(C2=NO[C@@H]3[C@H]2C(=O)C=C2N(Cc4ccccc4)CCO[C@@]23O)c(C)c1`, for which the TGI in test [1], in [2], in test [3], in [4], in [5] and in test [6] was > 100 µM in each case. Also, the TGI in [7], in test [8] and in test [9] was > 100 µM in each case.

Regarding `Nc1ncnc2c1ncn2C1C(O)C=C(CO)C1O` (stereo not given), the TGI in test [1], in test [3], in [4], in test [5], in test [6] and in test [7] was > 625 µM each time. Further, in [8], the TGI is > 625 µM.

Consider `CC(C)C(Nc1c2ccccc2[n+](C)c2ccccc12)C(=O)O` (stereo not given), for which the TGI in test [1], in test [2], in test [3], in test [5], in [6] and in [7] was > 100 µM each time. Moreover, the TGI in test [10], in test [8] and in test [9] was > 100 µM throughout.

Regarding `CCCCCCCCCCCCCCCCOC[C@H](COC(c1ccccc1)(c1ccccc1)c1ccccc1)O[P+](=S)OC` (stereo not given in full), the TGI in test [11], in test [2], in test [12], in test [4], in [5] and in [7] was > 100 µM in each case. For the same compound, the TGI in test [10], in [8] and in test [9] was > 100 µM throughout.

For the compound `Fc1cccc(C2ON=C(c3ccccc3)N2C23CC4CC(CC(C4)C2)C3)c1` (stereo not given), the TGI in [11], in test [2], in test [12], in test [4], in test [5] and in test [7] was > 10 µM throughout. For the same compound, the TGI in test [10], in test [8] and in [9] was > 10 µM throughout.

Consider `CN(Cc1ccccc1)C(=S)S`, for which the TGI in [11], in test [2], in test [12], in test [4], in [5] and in [7] was > 100 µM each time. In addition, the TGI in test [10], in test [8] and in test [9] was > 100 µM in each case.

`COc1cc2ccc(C(C)NCC#N)cc2cc1OC` (stereo not given): the TGI in [11], in test [2], in test [12], in test [4], in test [5] and in test [7] was > 100 µM throughout. Also, the TGI in test [10], in test [8] and in [9] was > 100 µM each time.

On to `COC1CCC(OS(C)(=O)=O)C(C)O1` (stereo not given), for which the TGI in test [11], in test [2], in test [12], in test [4], in test [5] and in test [7] was > 10 µM in each case. For the same compound, the TGI in test [10], in [8] and in test [9] was > 10 µM throughout.

Regarding `O=c1ccc(=O)c2c1c1[nH]c3ccccc3c1c1c(=O)c3ccccc3c(=O)c21`, the TGI in test [11], in test [2], in test [12], in [4], in [5] and in test [7] was > 10 µM in each case. The TGI in test [10], in [8] and in [9] was > 10 µM in each case.

With `C=C(CCC(=O)N(CCc1c[nH]c2ccccc12)C(=O)c1ccccc1CSCC)C(=O)OC`, the TGI in test [11], in test [2], in test [12], in test [4], in test [5] and in [7] was > 100 µM in each case. Besides, the TGI in [10], in [8] and in [9] was > 100 µM throughout.

Regarding `c1csc(-c2cc(-c3ccsc3)cs2)c1`, the TGI in test [11], in [2], in test [12], in test [4], in test [5] and in test [7] was > 100 µM each time. The TGI in [10], in [8] and in test [9] was > 100 µM throughout.

As for `CCOC(=O)NC(Nc1ccc(C(=O)O)cc1)(C(F)(F)F)C(F)(F)F`, the TGI in test [11], in [2], in test [12], in test [4], in [5] and in [7] was > 100 µM throughout. Further, the TGI in [10], in [8] and in test [9] was > 100 µM each time.

With `COC(=O)c1sc2c(Cl)c(Cl)sc2c1Cl`, the TGI in test [11], in test [2], in [12], in [4], in test [5] and in test [7] was > 100 µM throughout. In addition, the TGI in test [10], in test [8] and in test [9] was > 100 µM throughout.

On to `CCOC(=O)CC1(N)CC2c3ccccc3OC(=O)C2C(=O)N1` (stereo not given), for which the TGI in test [11], in [2], in test [12], in [4], in test [5] and in [7] was > 100 µM throughout. For the same compound, the TGI in test [10], in [8] and in test [9] was > 100 µM in each case.

For `Clc1ccc(C2=CC(c3ccccc3)N3C(=N[C@H]4CCCC[C@@H]43)N2)cc1` (stereo not given in full), the TGI in test [11] is 23.6 µM; in test [2], 17.4 µM; in [12], 21.6 µM; in test [4], 17.2 µM; in test [5], 13.6 µM; in [7], 15.5 µM. Also, the values for the TGI in test [10], in test [8] and in test [9] were 17.8 µM, 10.2 µM and 25.7 µM, respectively.

For `Cn1c(COC(=O)NC2CCCCC2)c(COC(=O)NC2CCCCC2)c2ccc3ccccc3c21`, the TGI in test [11], in test [2], in test [12], in test [4], in test [5] and in test [7] was > 100 µM throughout. Moreover, the TGI in test [10] is 53.6 µM; in test [8], > 100 µM; in test [9] it was > 100 µM.

For the compound `COc1cc(C2C3=C(NC(=O)C2C#N)c2ccc4ccccc4c2OCC3)cc(OC)c1OC` (stereo not given), the TGI in [11] was 68.1 µM; in test [2], > 100 µM; in test [12] it was 62.5 µM; in test [4], 29.7 µM; in test [5] it was 36.9 µM; in [7], > 100 µM. The values for the TGI in [10], in test [8] and in test [9] were 30.2 µM, > 100 µM and > 100 µM, respectively.

Regarding `CC[P+](c1ccccc1)(N(C)C)N(C)C`, the TGI in [11], in test [2], in test [12], in [4], in test [5] and in test [7] was > 100 µM each time. In addition, the TGI in test [10], in [8] and in test [9] was > 100 µM each time.

Turning to `COc1cc(CNc2nc3c(NC(C)=O)cc(C(F)(F)F)cc3nc2-c2ccccc2)cc(OC)c1OC`, the TGI in test [1], in test [2], in [4], in [5], in test [6] and in test [7] was > 100 µM each time. The TGI in [10] was > 100 µM.

For `CC(=O)CCN1CC2CN=NC2(C#N)C1` (stereo not given), the TGI in [11] was > 95.7 µM; in test [2], > 100 µM; in test [12] it was > 100 µM; in test [4], > 76.3 µM; in test [5], > 100 µM; in test [7], > 100 µM. In addition, the TGI in [10] was > 88.7 µM; in test [8], > 100 µM; in [9], > 100 µM.

For the compound `CC1=NN(c2cc(Cl)c(S(=O)(=O)O)cc2Cl)C2(C1)C(Cl)C(=O)N2c1nc2ccccc2s1` (stereo not given), the TGI in [11], in [2], in [12], in test [4], in [5] and in [7] was > 100 µM in each case. In addition, the TGI in [10], in [8] and in [9] was > 100 µM in each case.
